According to patent US6979747B2, “Antioxidants, preparation processes and their uses” (Centre National de la Recherche Scientifique (CNRS), priority 1999, dated 2005):

Assays:
HIV-1/Ba-L = assay: Production of p25 protein in supernatants of MDMs infected with HIV-1/Ba-L (ELISA); assay type: cell-based; conditions: infected MDM cultures
Experimental: The assaying of the p25 protein is carried out using the ELISA kit from DuPont de Nemours. 200 μl of the culture supernatant to be tested are placed in a well of a microtitration plate. The addition of 20 μl of lysis buffer releases the viral proteins in the medium. The released antigen attaches to a mouse anti-p25 monoclonal antibody immobilized at the bottom of the wells. After incubating for 2 h at 37° C., 3 washing operations using 5 ml of washing buffer are carried out and then 100 μl of a biotinylated polyclonal antibody which reacts with the immobilized antigen are incubated for 1 h at 37° C. The series of 3 washing operations in the same buffer and with the same volume is again carried out before the addition over 15 min at 37° C. of 100 μl of Raifort-streptavidin peroxidase conjugate which will make it possible to amplify the colorimetric reaction. […] After incubating for 30 min at ambient temperature, the reaction is halted by the addition of 100 μl of 4N sulfuric acid. The OD of the coloring thus obtained is read at […]. This absorbence is directly proportional to the amount of attached antigen. The linear relationship relating the O.D. to the p25 concentration is established by virtue of a standard range produced from a recombinant p25 solution.

HIV provirus = assay: Quantification of proviral DNAs by PCR (integration of the provirus within the cell genome); assay type: cell-based; conditions: PCR of proviral DNA
Experimental: I-152 is composed of MEA and NAC, which are capable of interacting with the early phases of the biological cycle of HIV. It is therefore capable of decreasing the integration of the provirus into the cell genome. In order to measure these effects, the proviral DNAs were quantified by PCR. The cells were lysed using 1 ml of the following lysis solution: 10 mM Tris HCl pH 8; 100 mM of EDTA pH 8; 0.5% of sodium dodecyl sulfate (SDS); 20 μg/ml of DNAse-free bovine pancreatic RNAse. 200 μg/ml of proteinase K are subsequently added to this suspension. The DNAs were subsequently extracted using 1 ml of an ice-cold saturated phenol solution and 1 ml of a […] solution.
The viral DNAs were then amplified by means of specific primers of the gag gene (SK01/SK39) and of a standard range of the 8E5 line, a chronically infected line, the cells of which carry a proviral copy. The β-globin gene was used as reporter gene in order to make sure of the quality of the DNA extraction.

GSH [1] = assay: Intracellular concentration of GSH in spleen macrophages; assay type: cell-based, human
Experimental: The spleen is dissected and sieved and then the mononuclear cells are isolated using a density gradient, on a Ficoll cushion. The monocytes/macrophages are obtained by adherence to the plastic. The monocytes were allowed to differentiate into macrophages for 7 days, at which time they were infected.
The intracellular GSH was assayed by means of the assay kit sold by Cayman. This method for assaying glutathione is an adaptation of that described by O. W. Griffith et al. (1980).

TNF-α = assay: Synthesis of TNF-α in MDMs stimulated with LPS and IFN-γ; assay type: cell-based, human; conditions: MDMs stimulated with LPS (1 μg/ml) and IFN-γ (100 IU/ml)
Experimental: The synthesis of tumor necrosis factor (TNF-α) was […] in the MDM culture supernatants using the calorimetric kit sold by Cayman.
The compound I-152 and its derivatives are prepared extemporaneously by being dissolved in dimethyl sulfoxide (DMSO) at the concentration of 100 mM. They are subsequently stored at −20° C. after having been diluted 10 fold in phosphate buffer (PBS).
(§1) Tumor necrosis factor (TNF-α), like the oxygen-comprising or nitrogen-comprising radical components, plays a major role in the apoptotic processes associated with infection the HIV. Furthermore, the radical components can promote the synthesis of this proinflammatory cytokine. For this reason, the effects of I-152 in decreasing the synthesis of TNF-α were thus looked for in MDMs stimulated by a bacterial lipopolysaccharide and interferon (IFN-γ).

GSH [2] = assay: Intracellular GSH in MDMs stimulated with LPS and IFN-γ; assay type: cell-based, human; conditions: MDMs stimulated with LPS (1 μg/ml) and IFN-γ (100 IU/ml)
Experimental: as §1, with “The intracellular GSH was assayed by means of the assay kit sold by Cayman. This method for assaying glutathione is an adaptation of that described by O. W. Griffith et al. (1980). Tumor” for “Tumor”

## CC(=O)N[C@@H](CS)C(=O)NCCSC(C)=O [I-152, N-(N-acetyl-L-cysteinyl)-S-acetylcysteamine]
HIV-1/Ba-L
  production of the p25 protein (in words): inhibition of the production of the p25 protein
HIV provirus
  integration of the provirus (in words): inhibits the integration of the provirus
GSH [1]
  concentration from which the GSH increase is saturated: ≥ 250 µM
  intracellular level of GSH (in words): increases the intracellular level of GSH
TNF-α
  synthesis of TNF-α (in words): inhibits the synthesis of TNF-α
GSH [2]
  concentration of GSH (in words): increases the concentration of GSH
